Several values for one entry are separate records, joined by “and”; a condition that tells them apart may be missing. Equal values may be shown once.
What was measured:
membrane potential = conditions: cited from earlier work
[1] = One-photon fluorescence relative signal change per 100 mV; conditions: excitation / long-pass emission (nm) given
From the text: The left-most data columns of Table 1 are the absorption and emission maxima for one photon fluorescence in soybean multi-lamellar lipid vesicles used to mimic the membrane environment. The column indicating relative signal change for one-photon fluorescence also lists the excitation light source used and the lower bounds of the long-pass emission detected.

[2] = One-photon absorption and emission spectra in multilamellar lipid vesicles, water and ethanol; format: physicochemical; conditions: one photon; soybean multi-lamellar lipid vesicles
From the text: […] The column indicating relative signal change for one-photon fluorescence also lists the excitation light source used and the lower bounds of the long-pass emission detected.
Absorption and emission spectra were obtained for a series of dyes with different acceptors: pyridinium (PY-1261), quinolinium (PY-212), and acridinium (PY-2240).

neuroblastoma cells = experiment: SHG and 2PF imaging of stained neuroblastoma cells, 1064 nm fiber laser; format: cell-based, mouse; conditions: 1064 nm excitation
From the text: For full details of our non-linear imaging microscope, we refer the reader to previously published descriptions. A. C. Millard, P. J. Campagnola, W. Mohler, A. Lewis, and L. M. Loew, “Second Harmonic Imaging Microscopy,” Meth. Enzymol. 361, 47-69 (2003); Millard, A. C., L. Jin, and L. M. Loew, “Second Harmonic Generation Imaging Microscopy with a High Power Ultrafast Fiber Laser,”Commercial and Biomedical Applications of Ultrafast Lasers. 5714-5716, 92-98 (2005); A. C. Millard, L. Jin, M.-D. Wei, J. P. Wuskell, A. Lewis, and L. M. Loew, “Sensitivity of Second Harmonic Generation from Styryl Dyes to Transmembrane Potential,” Biophys. J. 86, 1169-1176 (2004). Our current microscope combines a Fluoview (Olympus) scan-head and an Axiovert (Zeiss) inverted microscope constructed for multiple imaging methodologies including wide-field, one-photon excitation fluorescence imaging, as well as SHG and 2PF imaging. Our laser sources include a Mira (Coherent) Ti:sapphire laser and a Femtopower (Fianium) fiber laser operating at 1064 nm. […] Fluorescence is imaged (for linear imaging) or collected (for non-linear imaging) back through the excitation objective, while SHG is collected in the forward, transmitted light direction by a condenser, either 0.8 NA or 0.55 NA (Zeiss). […]

In the case of `CCN(CC)c1ccc(/C=C/C=C/C=C/c2cc[n+](CCC[N+](CC)(CC)CC)cc2)cc1.[Br-].[Br-]` [FM4-64], the “SHG sensitivity to membrane potential” value (membrane potential; literature) is given as < 10 % per 100 mV and 7.5-10 % per 100 mV.
For `CCCCN(CCCC)c1ccc(/C=C/c2cc[n+](CCC[N+](CC)(CC)CC)cc2)s1` [PY-1284], the “1PF Change (ΔF/F-100 mv)” value [1] was 1.5E−002; 555/>610 ΔF/F-100 mv, the “1PF Abs. Max” value [2] was 536 nm and the “1PF Em. Max” value [2] was 588 nm. The “2PF and SHG image signal strength” value (neuroblastoma cells) was “weak”.
For `CCCCN(CCCC)c1ccc2cc(/C=C/c3cc[n+](CCCS(=O)(=O)[O-])cc3)ccc2c1` [di-4-ANEPPS], the “SHG Kinetics (exponential time constant)” value (membrane potential; literature (Millard 2005)) is listed as 70.6 ms.

From patent US8129532B2, “Amino(oligo)thiophene dyes, preparation thereof, and optical methods of use” (The University of Connecticut, priority 2007, dated 2012)
